Laboratory results from ChEMBL document CHEMBL1201862, “PubChem BioAssay data set” (2004).
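These data come from cells grown in 96-well plates and exposed to compound for 48 hours at five concentrations. The concentration for 50% growth inhibition is given as GI50.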 Activity calls are given as the source filed them. Rule as the data show it: active = GI50 up to about 1.1 µM and inactive = higher.

What was measured:
Assay in all cases: DTP human tumour cell line panel, 48 h
MDA-MB-231 = test system: MDA-MB-231
NCI-H226 = test system: NCI-H226
SW-620 = test system: SW-620
DU-145 = test system: DU-145
OVCAR-8 = test system: OVCAR-8
OVCAR-5 = test system: OVCAR-5
MCF7 = test system: MCF7
U-251 = test system: U-251
SN12C = test system: SN12C
SF-539 = test system: SF-539
TK-10 = test system: TK-10
SF-268 = test system: SF-268
SK-MEL-28 = test system: SK-MEL-28
SK-MEL-2 = test system: SK-MEL-2
SR = test system: SR
PC-3 = test system: PC-3
MDA-N = test system: MDA-N
HOP-92 = test system: HOP-92
HCC 2998 = test system: HCC 2998

Measured: GI50

CN(C)Cc1cc(C(C)(C)C)cc(C2CCCCC2)c1O
inactive: MDA-MB-231 13.8 µM | NCI-H226 15.7 µM | SW-620 16.6 µM | DU-145 14.7 µM | OVCAR-8 13 µM | OVCAR-5 17 µM | MCF7 18.3 µM | U-251 14.4 µM | SN12C 15.7 µM | SF-539 10.9 µM | TK-10 15.5 µM | SF-268 16.8 µM | SK-MEL-28 13.2 µM | SK-MEL-2 18.3 µM | SR 12.3 µM | PC-3 13.6 µM

COC(=O)C(=O)C(C(=O)C(=O)Nc1ccc(Cl)c(Cl)c1)c1nc2ccc(C(=O)c3ccccc3)cc2nc1O (stereo unspecified)
inactive: MDA-MB-231 51.3 µM | NCI-H226 56.4 µM | SW-620 46.9 µM | OVCAR-8 40.6 µM | OVCAR-5 > 100 µM | MCF7 35.2 µM | MDA-N 42.9 µM | U-251 71 µM | SN12C > 100 µM | SF-539 62.2 µM | TK-10 > 100 µM | SF-268 51.4 µM | SK-MEL-28 85.3 µM | SK-MEL-2 97.9 µM | PC-3 38.1 µM | HOP-92 > 100 µM

N=c1oc2cc(O)ccc2cc1C(=O)Nc1cccc2ccccc12
inactive: MDA-MB-231 3.06 µM | NCI-H226 5.92 µM | SW-620 3.4 µM | DU-145 6.53 µM | OVCAR-8 4.78 µM | OVCAR-5 13.5 µM | MCF7 3.93 µM | U-251 3.53 µM | HCC 2998 3.71 µM | SN12C 5.33 µM | TK-10 2.69 µM | SF-268 3.61 µM | SK-MEL-28 6.34 µM | SR 1.67 µM | PC-3 3.05 µM | HOP-92 4.31 µM

S=c1nc(N2CCCCC2)c2cn[nH]c2[nH]1
inactive: MDA-MB-231 > 100 µM | NCI-H226 > 100 µM | SW-620 57 µM | DU-145 59.7 µM | OVCAR-8 64.9 µM | OVCAR-5 > 100 µM | MCF7 34.6 µM | U-251 60.5 µM | HCC 2998 44 µM | SN12C 79.8 µM | SF-539 52.6 µM | TK-10 39.2 µM | SF-268 78 µM | SK-MEL-28 65.6 µM | SK-MEL-2 20.1 µM | SR 14.5 µM | PC-3 59.2 µM

CC(C)[Si]1(C(C)C)OCC2OC3(CO)C(Oc4nc(=O)ccn43)C2O[Si](C(C)C)(C(C)C)O1 (stereo unspecified)
inactive: MDA-MB-231 10.2 µM | NCI-H226 15.2 µM | SW-620 15.5 µM | DU-145 14 µM | OVCAR-8 14.1 µM | MCF7 5.9 µM | U-251 14.2 µM | HCC 2998 12.5 µM | SF-539 15 µM | TK-10 16.6 µM | SF-268 17 µM | SK-MEL-28 15 µM | SK-MEL-2 16.3 µM | SR 15.5 µM | PC-3 5.4 µM | HOP-92 16.5 µM

CCOC(=O)Nn1cnnc1C
inactive: MDA-MB-231 > 100 µM | NCI-H226 > 100 µM | SW-620 > 100 µM | OVCAR-8 > 100 µM | OVCAR-5 > 100 µM | MCF7 > 100 µM | MDA-N > 100 µM | U-251 > 100 µM | HCC 2998 > 100 µM | SN12C > 100 µM | SF-539 > 100 µM | TK-10 > 100 µM | SK-MEL-2 > 100 µM | SR > 100 µM | PC-3 > 100 µM | HOP-92 > 100 µM

COc1ccc2c(c1)C(=O)OCCC2
inactive: MDA-MB-231 > 100 µM | NCI-H226 > 100 µM | SW-620 > 100 µM | DU-145 > 100 µM | OVCAR-8 > 100 µM | OVCAR-5 > 100 µM | MCF7 > 100 µM | U-251 > 100 µM | HCC 2998 > 100 µM | SN12C > 100 µM | SF-539 > 100 µM | TK-10 > 100 µM | SF-268 > 100 µM | SK-MEL-28 > 100 µM | SK-MEL-2 > 100 µM | PC-3 > 100 µM | HOP-92 > 100 µM

COc1cc(S(=O)(=O)Nc2ccc(-c3csc(/N=C\C=C\c4ccccc4)n3)cc2)ccc1Cl
inactive: NCI-H226 24.2 µM | SW-620 > 100 µM | DU-145 45.5 µM | OVCAR-8 34.8 µM | OVCAR-5 > 100 µM | MCF7 36.1 µM | MDA-N > 100 µM | HCC 2998 > 100 µM | SN12C > 100 µM | SF-539 22 µM | TK-10 42.2 µM | SF-268 29.9 µM | SK-MEL-28 > 100 µM | SK-MEL-2 26 µM | SR 32.5 µM | PC-3 19.9 µM | HOP-92 22.8 µM

OC(c1ccc(F)cc1)C(F)(F)c1nc2ccccc2o1 (stereo unspecified)
inactive: MDA-MB-231 83.8 µM | NCI-H226 > 100 µM | SW-620 > 100 µM | DU-145 47 µM | OVCAR-8 51.2 µM | MCF7 > 100 µM | U-251 > 100 µM | HCC 2998 > 100 µM | SF-539 > 100 µM | TK-10 > 100 µM | SF-268 38.9 µM | SK-MEL-28 > 100 µM | SK-MEL-2 > 100 µM | SR > 100 µM | PC-3 > 100 µM | HOP-92 21.7 µM

CCOc1cc(NC(C)=O)ccc1C(=O)NNS(=O)(=O)c1ccc(Cl)cc1Cl
inactive: NCI-H226 > 50 µM | SW-620 > 50 µM | DU-145 > 50 µM | OVCAR-8 > 50 µM | OVCAR-5 > 50 µM | MCF7 26.4 µM | MDA-N 10.6 µM | HCC 2998 > 50 µM | SN12C > 50 µM | SF-539 > 50 µM | SF-268 > 50 µM | SK-MEL-28 > 50 µM | SK-MEL-2 > 50 µM | SR 13.9 µM | PC-3 > 50 µM | HOP-92 > 50 µM

CCOC(=O)c1c(SC)nc(-c2ccc(Cl)cc2)sc1=N.[O-][Cl+3]([O-])([O-])O
inactive: MDA-MB-231 41.7 µM | NCI-H226 25.9 µM | SW-620 48 µM | DU-145 40.9 µM | OVCAR-8 23.5 µM | OVCAR-5 59.2 µM | MCF7 29 µM | U-251 37.6 µM | HCC 2998 22.7 µM | SN12C 44.4 µM | SF-539 32.1 µM | TK-10 44.3 µM | SF-268 29.4 µM | SK-MEL-28 61.9 µM | SK-MEL-2 20.2 µM | PC-3 26.1 µM | HOP-92 80.2 µM

O=C1CC(c2ccccc2)Oc2ccccc21 (stereo unspecified) [FLAVANONE]
inactive: MDA-MB-231 32.2 µM | NCI-H226 32.4 µM | SW-620 > 10 µM | DU-145 67.6 µM | OVCAR-8 48.9 µM | MCF7 37.8 µM | U-251 38.6 µM | HCC 2998 76.9 µM | SF-539 21.8 µM | TK-10 76.4 µM | SF-268 64.7 µM | SK-MEL-28 > 100 µM | SK-MEL-2 30.1 µM | SR 24 µM | PC-3 38.5 µM | HOP-92 24.9 µM
